In patent US10221239B2, “TRPM4 channel inhibitors for stroke treatment” (Singapore Health Services Pte Ltd, priority 2013, dated 2019):
Entries after “also recorded” stand apart in the source; their conditions may differ.

Legend:
HUVECs [1] = experiment: HUVEC cell number count after different doses of 9-phenanthrol; type: cell-based, human
Procedure: (§1) HUVECs (Lonza, Wokingham, UK) were cultured at 37° C. with 5% CO2. The culture medium is endothelial growth medium-2 (EGM-2) consisting of endothelial basal medium (EBM), supplemented with 2% fetal bovine serum, hydrocortisone, hFGF, VEGF, R3-IGF-1, ascorbic acid, HEGF, GA-1000, and heparin (Lonza, Wokingham, UK). Cells at passage 6-10 were used for experiments. HUVECs were subjected to oxygen/glucose deprivation (OGD). To achieve supplement deprivation, EGM-2 was changed to EBM without fetal bovine serum or growth supplements. Hypoxia was induced by culturing the cells in a hypoxic chamber (Stem Cell Technologies, Vancouver, Canada) with 1% O2 and 5% CO2 at 37° C. for 24 hours.
To test the functional impact of TRPM4 on HUVECs, the cells were incubated with the TRPM4-specific blocker 9-phenanthrol. […] A study was performed in which 9-phenantrol with the concentration ranged from 0.1 μM to 30 μM was added to HUVECs. […] Thus, 5 μM 9-phenanthrol was used to treat HUVECs.

HUVECs [2] = experiment: HUVEC cell death after oxygen/glucose deprivation (cell count, MTT); type: cell-based, human; conditions: 5 μM
Procedure: as §1

HUVECs [3] = experiment: Tube formation of HUVECs on Matrigel after OGD; type: cell-based, human; conditions: 5 μM
Procedure: as §1
HUVECs were divided into the following groups: Normoxia; Normoxia+5 μM 9-phenanthrol (Sigma); Hypoxia; and Hypoxia+5 μM 9-phenanthrol. A 24-well culture plate was precoated with 250 μl of growth factor-reduced Matrigel (Sigma, USA) at 37° C. for 30 minutes. 24 hours after OGD, 4×10^4 cells (in 300 μl of EGM-2) from each group were seeded onto the Matrigel-coated plates. The formation of capillary structures was examined under a light microscope after 4 hours. This study was replicated more than 4 times.

TRPM5 channel = biological target: T1, TRPM5 channel (Homo sapiens, UniProt Q9NZQ8); conditions: Grand T, et al. 2008; cited from earlier work
T1 sequence (Q9NZQ8 1-1165): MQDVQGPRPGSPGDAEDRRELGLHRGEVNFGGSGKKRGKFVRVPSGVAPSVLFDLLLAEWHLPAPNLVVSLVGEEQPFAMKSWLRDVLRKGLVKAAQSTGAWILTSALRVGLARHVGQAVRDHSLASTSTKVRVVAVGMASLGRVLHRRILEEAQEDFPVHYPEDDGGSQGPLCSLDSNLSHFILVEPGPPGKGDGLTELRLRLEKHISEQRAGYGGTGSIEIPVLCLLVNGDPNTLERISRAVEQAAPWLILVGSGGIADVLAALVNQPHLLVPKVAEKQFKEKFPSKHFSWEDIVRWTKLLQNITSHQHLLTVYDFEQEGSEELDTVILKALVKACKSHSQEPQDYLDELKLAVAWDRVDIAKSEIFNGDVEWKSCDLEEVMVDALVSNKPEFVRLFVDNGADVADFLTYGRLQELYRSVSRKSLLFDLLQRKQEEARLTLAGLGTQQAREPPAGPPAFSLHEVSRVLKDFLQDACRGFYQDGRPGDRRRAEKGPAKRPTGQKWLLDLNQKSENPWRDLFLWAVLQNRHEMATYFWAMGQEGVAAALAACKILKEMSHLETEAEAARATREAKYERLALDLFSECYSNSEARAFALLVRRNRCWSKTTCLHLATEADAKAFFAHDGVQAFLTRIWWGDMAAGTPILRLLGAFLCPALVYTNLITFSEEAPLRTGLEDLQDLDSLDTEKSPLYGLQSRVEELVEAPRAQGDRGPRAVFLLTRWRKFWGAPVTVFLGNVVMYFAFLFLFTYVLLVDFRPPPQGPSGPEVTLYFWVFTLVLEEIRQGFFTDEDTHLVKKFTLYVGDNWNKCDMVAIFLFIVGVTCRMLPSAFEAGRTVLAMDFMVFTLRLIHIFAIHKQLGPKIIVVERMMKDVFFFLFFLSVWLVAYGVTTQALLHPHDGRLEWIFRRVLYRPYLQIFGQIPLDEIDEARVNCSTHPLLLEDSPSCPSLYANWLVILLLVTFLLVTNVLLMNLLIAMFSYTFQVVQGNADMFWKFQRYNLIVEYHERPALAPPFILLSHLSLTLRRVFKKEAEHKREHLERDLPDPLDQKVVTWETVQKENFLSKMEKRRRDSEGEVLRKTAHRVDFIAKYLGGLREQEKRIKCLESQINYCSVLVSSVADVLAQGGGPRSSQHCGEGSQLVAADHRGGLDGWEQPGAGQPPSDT

TRPM4 homomers = TRPM4 homomers (Homo sapiens, UniProt Q8TD43); conditions: Sala-Rabanal M, et al. 2012; cited from earlier work
Chain of TRPM4 homomers (Q8TD43 whole entry): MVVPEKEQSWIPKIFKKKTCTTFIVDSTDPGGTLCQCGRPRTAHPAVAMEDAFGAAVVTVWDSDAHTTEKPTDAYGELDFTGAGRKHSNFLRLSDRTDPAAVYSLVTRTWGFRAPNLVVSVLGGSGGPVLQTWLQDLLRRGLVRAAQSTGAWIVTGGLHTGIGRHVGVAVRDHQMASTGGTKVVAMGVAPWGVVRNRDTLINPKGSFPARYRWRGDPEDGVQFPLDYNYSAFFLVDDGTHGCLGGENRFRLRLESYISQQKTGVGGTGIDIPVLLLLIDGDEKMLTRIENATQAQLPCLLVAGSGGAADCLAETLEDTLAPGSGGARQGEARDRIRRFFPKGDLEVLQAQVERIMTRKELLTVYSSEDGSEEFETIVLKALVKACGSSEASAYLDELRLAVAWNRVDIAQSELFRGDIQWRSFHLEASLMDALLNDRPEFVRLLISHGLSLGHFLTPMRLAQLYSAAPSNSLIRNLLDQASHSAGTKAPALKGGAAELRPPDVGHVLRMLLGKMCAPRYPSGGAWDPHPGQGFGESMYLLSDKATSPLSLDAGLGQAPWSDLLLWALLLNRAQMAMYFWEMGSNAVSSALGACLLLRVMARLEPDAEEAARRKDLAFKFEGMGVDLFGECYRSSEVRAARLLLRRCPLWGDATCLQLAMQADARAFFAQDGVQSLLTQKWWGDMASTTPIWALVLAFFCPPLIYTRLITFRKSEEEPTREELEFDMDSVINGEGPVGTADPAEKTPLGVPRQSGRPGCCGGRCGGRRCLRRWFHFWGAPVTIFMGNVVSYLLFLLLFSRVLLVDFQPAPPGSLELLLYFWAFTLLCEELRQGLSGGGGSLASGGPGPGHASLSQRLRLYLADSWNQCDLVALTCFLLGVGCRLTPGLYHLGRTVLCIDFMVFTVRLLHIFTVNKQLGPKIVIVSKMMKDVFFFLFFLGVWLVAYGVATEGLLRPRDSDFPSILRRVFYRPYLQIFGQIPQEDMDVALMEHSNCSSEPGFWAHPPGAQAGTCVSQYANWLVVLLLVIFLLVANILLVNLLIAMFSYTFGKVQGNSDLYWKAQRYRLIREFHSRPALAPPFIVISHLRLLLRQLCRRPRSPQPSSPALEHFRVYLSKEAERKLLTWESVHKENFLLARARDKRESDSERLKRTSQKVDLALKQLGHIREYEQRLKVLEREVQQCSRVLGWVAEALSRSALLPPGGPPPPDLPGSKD

Oc1cc2ccccc2c2ccccc12 [9-phenanthrol]
cell death (HUVECs [1]; 10 μM 9-phenanthrol in culture medium): Cell death became prominent
cell survival (HUVECs [1]; 30 μM 9-phenanthrol): Very few cells survived
cell death (HUVECs [1]; 9-phenanthrol between 0.1 μM and 5 μM): No difference
cell death after OGD (HUVECs [2]; 24 hours OGD): did not reduce cell death
MTT assay cell viability (HUVECs [2]; vs control cells): no difference
HUVEC cell number count (HUVECs [2]; vs control cells, normoxia and hypoxia 24 hours): no difference
tube formation (tube branches) on Matrigel (HUVECs [3]): large enhancement; also recorded: significantly increased
effect on TRPM5 channel (TRPM5 channel): does not affect

COc1ccc(Cl)cc1C(=O)NCCc1ccc(S(=O)(=O)NC(=O)NC2CCCCC2)cc1 [glibenclamide]
sensitivity of TRPM4 homomers (TRPM4 homomers): not sensitive
